How the values were obtained:
[1] = Longitudinal relaxivity r1 and relaxivity vs pH profiles; type: physicochemical
Method: The longitudinal relaxivity values (r1) for GdL1 and GdL2, at 20 MHz (0.47 T), 298 K, and pH 7.4, are 4.7 and 5.1 mM^–1 s^–1, respectively. These are typical values of the clinical MRI contrast agents, i.e., low-molecular-weight q = 1 Gd^III chelates that tumble rapidly in solution.[1],[2] In particular, these values compare well with the r1 reported for GdHPDO3A[24] and other HPDO3A-like complexes such as GdHPDO3MA[25] or the series of Gd-hydroxypropylamide-DO3A (HPADO3A, Scheme 1)[7] complexes measured at the same experimental conditions.
At pH >3, the r1 values of GdL2 decrease with the increase of pH from 6.6 mM^–1 s^–1 to reach a plateau of 5.1 mM^–1 s^–1 around pH = 7.5. A further increase of the pH results in the slight increase of r1 reaching a maximum around pH = 9.5. Finally, at pH >9.5, another small decrease in r1 is observed. On the other hand, in the case of GdL1, the r1 values are independent from the pH in the range 4.0–7.5, whereas at pH >8.0, r1 increases up to 5.2 mM^–1 s^–1. The r1 values of GdL1 were measured in the pH range 4–10 in order to avoid the hydrolysis of the methyl ester. […] Then, the overall relaxivity, r1, is given by eq 1: [drawing 1] 1 where r1^is, r1^os, and r1^pr are the relaxivity components due to the inner and outersphere water molecules and the −OH group, respectively. r1^pr can be expressed as follows:[26]−[28] [drawing 2] 2
Proton relaxation measurements (1/T1) and the resulting 1/T1 NMRD profiles were measured on a fast-field cycling (FFC) Stelar SmarTracer relaxometer over a continuum of magnetic field strengths from 0.000 24 to 0.25 T (corresponding to 0.01–10 MHz proton Larmor frequencies). The relaxometer operates under computer control with an absolute uncertainty in 1/T1 of ±1%. […] Furthermore, the real temperature inside the probe head was additionally monitored by a Fluke 52 k/j digital thermometer (Fluke, Zürich, Switzerland). The gadolinium concentration was determined by measuring the bulk magnetic susceptibility shifts of the t-BuOH ^1H NMR signal. Additional data in the 20–120 MHz frequency range were obtained with a high field relaxometer (Stelar) equipped with the HTS-110 3T metrology cryogen-free superconducting magnet. […] The pH-dependent relaxivity measurements of GdL1 and GdL2 complexes were carried out by direct titration of the samples (GdL2, 3.0 < pH < 12.5; GdL1, 4 < pH < 10). The pH was adjusted by the stepwise addition of concentrated NaOH or HCl solution. Calculations were performed with the computer program Micromath Scientist, version 2.0 (Salt Lake City, UT).

[2] = Protonation constants of the Gd^III complexes by pH potentiometry; type: physicochemical; conditions: 0.15 M NaCl, 298 K
Source text: The metal complexes of biomedical interest must show a high in vivo stability, which includes high thermodynamic stability and kinetic inertness to allow targeting applications and to avoid possible toxic effects derived by metal ion and ligand release via transmetalation or transchelation reactions.[2],[3],[13] The protonation constants of L2 as well as the stability and the protonation constants of GdL2 and those of the most important endogenous divalent metal complexes (Ca^II-, Zn^II-, and Cu^II) were determined by pH potentiometry (Table 1 and Table S1). In the case of GdL1, we were interested in determining the dissociation constant of the hydroxyl group that was measured also by pH potentiometry (Table 1). […]
The stability and protonation constants of Ca^2+, Zn^2+, and Cu^2+ complexes formed with the […] ligand were determined by pH potentiometric titration. […] The protonation constants of the GdL1 and GdL2 complexes were determined using pH potentiometry by titrating the preprepared complexes from pH = 3.0 to pH = 12 for GdL2 and from pH = 4.0 to pH = 12 for GdL1 with 0.2 M NaOH. The stability constants of GdL2 were determined by the “out-of-cell” technique because of the slow formation reaction. The pH range of the complexation equilibria and the time needed to reach the equilibria were determined by relaxometry for the formation of GdL2. […]

SMILES | longitudinal relaxivity r1 ([1]; 20 MHz (0.47 T), 298 K, pH 7.4) | r1 plateau ([1]; around pH = 7.5, 21 MHz, 298 K, 0.15 M NaCl) | relaxivity increase by acid-catalyzed proton exchange ([1]; pH <6) | r1 at the acidic start of the pH profile ([1]; pH about 3, 21 MHz, 298 K, 0.15 M NaCl) | Gd(L)H–1 (log KGd(L)H-1, protonation constant of the alkoxide) [2] | Gd(HL) (log K, protonation constant of the Gd complex) ([2]; carboxylate of the 2-hydroxypropanoic arm)
O=C([O-])CN1CCN(CC(=O)[O-])CCN(CC(O)C(=O)O)CCN(CC(=O)[O-])CC1.[Gd+3] (stereo not drawn) [GdL2] | 5.1 mM^–1 s^–1 | 5.1 mM^–1 s^–1 | ca. 30% | 6.6 mM^–1 s^–1 | – | –
O=C(O)CN1CCN(CC(=O)O)CCN(C[C@@H](O)C(=O)O)CCN(CC(=O)O)CC1 [L2, (R)2,2′,2″-(10-(2-Carboxy-2-hydroxyethyl)-1,4,7,10-tetraazacyclododecane-1,4,7-triyl) Triacetic Acid] | – | – | – | – | 9.58 (3) | 3.36 (3)

Reference: article PMC8769378, “Underlining the Importance of Peripheral Protic Functional Groups to Enhance the Proton Exchange of Gd-Based MRI Contrast Agents” (Inorganic Chemistry, 2021)
